One assay deals with T1, human CDK4/cyclin D3 (Homo sapiens, UniProt P11802).
T1 construct: made in house; host or cells: insect cells co-infected with baculovirus vectors
The assay can be described thus: Inhibition of CDK4/cyclin D retinoblastoma kinase activity (Ki; % inhibition). The class given is biochemical. The following applies: for Ki: apparent Ki, CDK4/cyclin D3, Rb substrate. An outline of the steps: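 Insect-cell-expressed CDK4 with truncated cyclin D3 (1-264), 5 nM, phosphorylating His-tagged Rb fragment (386-928) with 25 μM [32/33P]ATP at pH 7.4, 30 °C, 20 min (60 min for tight binders). Filter capture, phosphorimager read; % inhibition at 30 nM compound, Ki from competitive or tight-binding fits.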

Another assay concerns the target T2, CDK2/cyclin A (Homo sapiens, UniProt P24941).
T2 construct: made in house; host or cells: CDK2: insect cells (baculovirus); cyclin A: E. coli
The assay can be described thus: Inhibition of CDK2/cyclin A retinoblastoma kinase activity (Ki; % inhibition). The class given is biochemical. The following applies: for Ki: apparent Ki, CDK2/cyclin A, Rb substrate. The method in brief: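 Radiometric filter assay of CDK2/proteolyzed cyclin A (baculovirus-expressed human CDK2, 10 or 19 nM) phosphorylating an Rb fragment with 25 μM [³²P/³³P]ATP in pH 7.4 HEPES, 2% DMSO, at 30 °C for 60 or 75 min under initial-rate conditions. Library compounds screened at 30 nM for % inhibition; apparent Ki from concentration series fit to competitive or tight-binding inhibition equations.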

Another assay has as its system HCT-116 cell line. The assay can be described thus: Inhibition of cell growth, MTT tetrazolium salt assay. Format: cell-based. To be noted: for IC50: Homo sapiens, HCT-116, 120 h, MTT, three to five days. An outline of the steps:
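Cells in McCoy's 5A medium were given 4 h before compound addition in 0.5% (v/v) DMSO, then incubated 3–5 days at 37 °C, 5% CO2. After 4 h with 0.2 mg/mL MTT, DMSO-solubilized formazan was read at 540 nm; 50% and 90% growth-inhibitory concentrations came from semi-log plots against vehicle controls.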

[1] abbreviates: HCT-116 cells, 0.25 μM compound.

Each structure is given as a SMILES string.

T1 sequence (P11802 whole entry): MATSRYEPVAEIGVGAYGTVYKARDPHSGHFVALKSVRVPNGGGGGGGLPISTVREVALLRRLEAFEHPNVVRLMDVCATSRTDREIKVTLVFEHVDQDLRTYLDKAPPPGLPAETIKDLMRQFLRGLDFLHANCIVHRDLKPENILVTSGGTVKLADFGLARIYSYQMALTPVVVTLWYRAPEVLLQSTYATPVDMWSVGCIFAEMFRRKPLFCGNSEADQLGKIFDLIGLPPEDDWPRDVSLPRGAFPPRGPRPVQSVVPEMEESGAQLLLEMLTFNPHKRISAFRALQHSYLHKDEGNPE
T1 sequence (P30281 1-264 partner limits assumed): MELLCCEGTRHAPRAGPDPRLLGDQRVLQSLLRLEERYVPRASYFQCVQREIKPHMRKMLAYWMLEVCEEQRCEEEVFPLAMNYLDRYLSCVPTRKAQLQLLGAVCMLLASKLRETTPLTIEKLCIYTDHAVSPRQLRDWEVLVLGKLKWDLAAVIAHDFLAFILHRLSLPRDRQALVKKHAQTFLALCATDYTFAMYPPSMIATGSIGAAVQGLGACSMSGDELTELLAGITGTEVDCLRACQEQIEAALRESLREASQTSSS

As for `COCCN(C)C(=O)c1ccc(Nc2nc(N)c(C(=O)c3c(F)cccc3F)s2)cc1` [Example G13], the “CDK4 % Inhibition at 0.03 μM” value on human CDK4/cyclin D3 (at 0.03 μM) is on record as 0%. Further, at CDK2/cyclin A (at 0.03 μM), the “CDK2 % Inhibition at 0.03 μM” value is reported as −16%. In addition, the “HCT-116 % Inhibition at 0.25 μM” value with HCT-116 cell line (HCT-116, at 0.25 μM) is 44%.
`CN(C)C1(CNC(=O)c2ccc(Nc3nc(N)c(C(=O)c4c(F)cccc4F)s3)cc2)CCCC1` [Example A77, 4-{[4-Amino-5-(2,6-difluorobenzoyl)-1,3-thiazol-2-yl]amino}-N-{[1-(dimethylamino)cyclopentyl]methyl}benzamide]: the Ki on human CDK4/cyclin D3 was found to be 5.2 nM; on CDK2/cyclin A, 84 nM. Also, in the assay on HCT-116 cell line, the IC50 was 120 nM.
As to `CN(C(=O)c1ccc(Nc2nc(N)c(C(=O)c3c(F)cccc3F)s2)cc1)C1CCCCC1` [Example G187], on human CDK4/cyclin D3 (at 0.03 μM), the “CDK4 % Inhibition at 0.03 μM” value came to 12%. Besides, at CDK2/cyclin A (at 0.03 μM), the “CDK2 % Inhibition at 0.03 μM” value was −2%. For the same compound, the “HCT-116 % Inhibition at 0.1 μM” value in the assay on HCT-116 cell line (HCT-116, at 0.1 μM) came out at 16%. Moreover, in the assay on HCT-116 cell line (HCT-116, at 0.25 μM), the “HCT-116 % Inhibition at 0.25 μM” value worked out at 48%.
In the same order, the values of `CN(CC#N)C(=O)c1ccc(Nc2nc(N)c(C(=O)c3c(F)cccc3F)s2)cc1` [Example G195] are 26%, 20%, 17% and 47%.
For the compound `COc1ccc(N2CCN(C(=O)c3ccc(Nc4nc(N)c(C(=O)c5c(F)cccc5F)s4)cc3)CC2)cc1` [Example G240], on human CDK4/cyclin D3 (0.03 μM compound), the “CDK4 % Inhibition at 0.03 μM” value is 27%. Besides, the “CDK2 % Inhibition at 0.03 μM” value at CDK2/cyclin A (0.03 μM compound) is on record as 11%. For the same compound, the “HCT-116 % Inhibition at 0.1 μM” value in the assay on HCT-116 cell line (HCT-116 cells, 0.1 μM compound) is 15%. Besides, the “HCT-116 % Inhibition at 0.25 μM” value in the assay with HCT-116 cell line (setting [1]) was found to be 52%.
`CCCCCNC(=O)c1ccc(Nc2nc(N)c(C(=O)c3c(F)cccc3F)s2)cc1` [Example G200]: the “CDK4 % Inhibition at 0.03 μM” value at human CDK4/cyclin D3 (0.03 μM compound) turned out to be 23%. The “CDK2 % Inhibition at 0.03 μM” value on CDK2/cyclin A (0.03 μM compound) is recorded as 15%. Also, the “HCT-116 % Inhibition at 0.1 μM” value in the assay on HCT-116 cell line (HCT-116 cells, 0.1 μM compound) was found to be 19%. Further, the “HCT-116 % Inhibition at 0.25 μM” value with HCT-116 cell line (setting [1]) came to 50%.
Turning to `Nc1nc(Nc2ccc(C(=O)NCc3ccccc3)cc2)sc1C(=O)c1c(F)cccc1F` [Example G181], the “CDK4 % Inhibition at 0.03 μM” value on human CDK4/cyclin D3 (at 0.03 μM) is reported as 36%. For the same compound, the “CDK2 % Inhibition at 0.03 μM” value on CDK2/cyclin A (at 0.03 μM) was found to be 30%. For the same compound, the “HCT-116 % Inhibition at 0.1 μM” value with HCT-116 cell line (HCT-116, at 0.1 μM) was found to be 28%. The “HCT-116 % Inhibition at 0.25 μM” value in the assay on HCT-116 cell line (HCT-116, at 0.25 μM) was 75%.
As for `Nc1nc(Nc2ccc(C(=O)Nc3ccc(-c4csnn4)cc3)cc2)sc1C(=O)c1c(F)cccc1F` [Example G30], the “CDK4 % Inhibition at 0.03 μM” value on human CDK4/cyclin D3 (at 0.03 μM) is listed as 5%. In addition, on CDK2/cyclin A (at 0.03 μM), the “CDK2 % Inhibition at 0.03 μM” value is recorded as 5%. Moreover, the “HCT-116 % Inhibition at 0.25 μM” value with HCT-116 cell line (HCT-116, at 0.25 μM) is 82%.
For `COc1cc(NC(=O)c2ccc(Nc3nc(N)c(C(=O)c4c(F)cccc4F)s3)cc2)ccc1C` [Example G138], at human CDK4/cyclin D3 (at 0.03 μM), the “CDK4 % Inhibition at 0.03 μM” value turned out to be 17%. For the same compound, the “CDK2 % Inhibition at 0.03 μM” value at CDK2/cyclin A (at 0.03 μM) came to 7%. Moreover, the “HCT-116 % Inhibition at 0.1 μM” value with HCT-116 cell line (HCT-116, at 0.1 μM) turned out to be 0%. The “HCT-116 % Inhibition at 0.25 μM” value with HCT-116 cell line (HCT-116, at 0.25 μM) amounted to 65%.
Regarding `Nc1nc(Nc2ccc(C(=O)NCc3cccc(Cl)c3)cc2)sc1C(=O)c1c(F)cccc1F` [Example G324], the “CDK4 % Inhibition at 0.03 μM” value on human CDK4/cyclin D3 (0.03 μM compound) was 26%. On CDK2/cyclin A (0.03 μM compound), the “CDK2 % Inhibition at 0.03 μM” value stood at 28%. Further, the “HCT-116 % Inhibition at 0.1 μM” value in the assay on HCT-116 cell line (HCT-116 cells, 0.1 μM compound) was 5%. For the same compound, the “HCT-116 % Inhibition at 0.25 μM” value in the assay on HCT-116 cell line (setting [1]) worked out at 60%.
On to `Nc1nc(Nc2ccc(C(=O)NCC3CCCO3)cc2)sc1C(=O)c1c(F)cccc1F` (stereo not drawn) [Example G116], for which the “CDK4 % Inhibition at 0.03 μM” value on human CDK4/cyclin D3 (at 0.03 μM) was found to be 24%. In addition, the “CDK2 % Inhibition at 0.03 μM” value on CDK2/cyclin A (at 0.03 μM) is recorded as 7%. Further, in the assay with HCT-116 cell line (HCT-116, at 0.1 μM), the “HCT-116 % Inhibition at 0.1 μM” value is reported as 0%. The “HCT-116 % Inhibition at 0.25 μM” value with HCT-116 cell line (HCT-116, at 0.25 μM) was found to be 46%.
With `CN(C)CCNC(=O)c1cccc(Nc2nc(N)c(C(=O)c3c(F)cccc3F)s2)c1` [F], the Ki on human CDK4/cyclin D3 worked out at 140 nM; at CDK2/cyclin A, 270 nM. Moreover, the IC50 with HCT-116 cell line amounted to 1800 nM.
In the case of `COCCN(CCOC)C(=O)c1ccc(Nc2nc(N)c(C(=O)c3c(F)cccc3F)s2)cc1` [Example G36], the “CDK4 % Inhibition at 0.03 μM” value at human CDK4/cyclin D3 (at 0.03 μM) was 6%. In addition, the “CDK2 % Inhibition at 0.03 μM” value on CDK2/cyclin A (at 0.03 μM) is −4%. Moreover, the “HCT-116 % Inhibition at 0.25 μM” value in the assay on HCT-116 cell line (HCT-116, at 0.25 μM) stood at 62%.
For the compound `CC(=O)NC1CCN(C(=O)c2ccc(Nc3nc(N)c(C(=O)c4c(F)cccc4F)s3)cc2)C1` (stereo not drawn) [Example G73], the “CDK4 % Inhibition at 0.03 μM” value on human CDK4/cyclin D3 (at 0.03 μM) is reported as 18%. Moreover, the “CDK2 % Inhibition at 0.03 μM” value on CDK2/cyclin A (at 0.03 μM) was 19%. In addition, the “HCT-116 % Inhibition at 0.25 μM” value with HCT-116 cell line (HCT-116, at 0.25 μM) stood at 56%.
Regarding `Nc1nc(Nc2ccc(C(=O)NCCc3cccc(F)c3)cc2)sc1C(=O)c1c(F)cccc1F` [Example G349], the “CDK4 % Inhibition at 0.03 μM” value at human CDK4/cyclin D3 (0.03 μM compound) came out at 11%. Besides, at CDK2/cyclin A (0.03 μM compound), the “CDK2 % Inhibition at 0.03 μM” value was −6%. Moreover, the “HCT-116 % Inhibition at 0.1 μM” value with HCT-116 cell line (HCT-116 cells, 0.1 μM compound) was determined as 31%. For the same compound, in the assay on HCT-116 cell line (setting [1]), the “HCT-116 % Inhibition at 0.25 μM” value came to 48%.

Usually IC50 stands for the midpoint of a concentration-inhibition curve.
